Reference: the supplement of paper PMC10307832

How the values were obtained:
Assay in all cases: relative viability (nuclei count vs DMSO), 5 days (fraction); higher = more cells survive
Sunitinib + Palbociclib = compound: CCN(CC)CCNC(=O)c1c(C)[nH]c(/C=C2\C(=O)Nc3ccc(F)cc32)c1C [Sunitinib] + CC(=O)c1c(C)c2cnc(Nc3ccc(N4CCNCC4)cn3)nc2n(C2CCCC2)c1=O [Palbociclib] (partner 0.5 µM)
Procedure, shortened: (§1)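 Medians of duplicate plates are given as relative viability. That measure is the nuclei count in treated wells divided by the count in vehicle wells. Counts were taken on 4× images of lung cancer cell lines in 1536-well plates, 5 days after pin-tool dosing the day after seeding with one drug alone or a fixed anchor-drug dose plus five library-drug doses (not always all listed) in √10 steps.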

Sunitinib + Bortezomib = compound: CCN(CC)CCNC(=O)c1c(C)[nH]c(/C=C2\C(=O)Nc3ccc(F)cc32)c1C [Sunitinib] + CC(C)C[C@H](NC(=O)[C@H](Cc1ccccc1)NC(=O)c1cnccn1)B(O)O [Bortezomib] (partner 0.002 µM)
Procedure, shortened: as §1

Sunitinib + Alpelisib = compound: CCN(CC)CCNC(=O)c1c(C)[nH]c(/C=C2\C(=O)Nc3ccc(F)cc32)c1C [Sunitinib] + Cc1nc(NC(=O)N2CCC[C@H]2C(N)=O)sc1-c1ccnc(C(C)(C)C(F)(F)F)c1 [Alpelisib] (partner 2 µM)
Procedure, shortened: as §1

Sunitinib + Dasatinib = compound: CCN(CC)CCNC(=O)c1c(C)[nH]c(/C=C2\C(=O)Nc3ccc(F)cc32)c1C [Sunitinib] + Cc1nc(Nc2ncc(C(=O)Nc3c(C)cccc3Cl)s2)cc(N2CCN(CCO)CC2)n1 [Dasatinib] (partner 0.075 µM)
Procedure, shortened: as §1

LCLC-97TM1 gave a relative viability (Sunitinib + Palbociclib; first compound 0.02 µM) of 0.209, a relative viability (Sunitinib + Palbociclib; first compound 0.06325 µM) of 0.268 and a relative viability (Sunitinib + Palbociclib; first compound 0.2 µM) of 0.279. It also gave a relative viability (Sunitinib + Palbociclib; first compound 0.6325 µM) of 0.229, a relative viability (Sunitinib + Palbociclib; first compound 2 µM) of 0.231 and a relative viability (Sunitinib + Bortezomib; first compound 0.02 µM) of 0.653. For the same cell line, the relative viability (Sunitinib + Bortezomib; first compound 0.06325 µM) was 0.967, the relative viability (Sunitinib + Bortezomib; first compound 0.2 µM) was 0.713 and the relative viability (Sunitinib + Bortezomib; first compound 0.6325 µM) was 0.774. It also gave a relative viability (Sunitinib + Bortezomib; first compound 2 µM) of 0.757, a relative viability (Sunitinib + Alpelisib; first compound 0.02 µM) of 0.24 and a relative viability (Sunitinib + Alpelisib; first compound 0.06325 µM) of 0.351. For the same cell line, the relative viability (Sunitinib + Alpelisib; first compound 0.6325 µM) was 0.276, the relative viability (Sunitinib + Alpelisib; first compound 2 µM) was 0.286 and the relative viability (Sunitinib + Dasatinib; first compound 0.02 µM) was 0.918. For the same cell line, the relative viability (Sunitinib + Dasatinib; first compound 0.06325 µM) was 0.904, the relative viability (Sunitinib + Dasatinib; first compound 0.2 µM) was 0.914 and the relative viability (Sunitinib + Dasatinib; first compound 0.6325 µM) was 0.911. It also gave a relative viability (Sunitinib + Dasatinib; first compound 2 µM) of 0.793.
In the case of NCI-H1734, the relative viability (Sunitinib + Palbociclib; first compound 0.02 µM) is reported as 0.364, the relative viability (Sunitinib + Palbociclib; first compound 0.06325 µM) is reported as 0.375 and the relative viability (Sunitinib + Palbociclib; first compound 0.2 µM) is reported as 0.37. The relative viability (Sunitinib + Palbociclib; first compound 0.6325 µM) was 0.34, the relative viability (Sunitinib + Palbociclib; first compound 2 µM) was 0.323 and the relative viability (Sunitinib + Bortezomib; first compound 0.02 µM) was 0.855. The relative viability (Sunitinib + Bortezomib; first compound 0.06325 µM) was 0.962, the relative viability (Sunitinib + Bortezomib; first compound 0.2 µM) was 1.35 and the relative viability (Sunitinib + Bortezomib; first compound 0.6325 µM) was 1.09. It also gave a relative viability (Sunitinib + Bortezomib; first compound 2 µM) of 0.911, a relative viability (Sunitinib + Alpelisib; first compound 0.02 µM) of 0.626 and a relative viability (Sunitinib + Alpelisib; first compound 0.06325 µM) of 0.673. It also gave a relative viability (Sunitinib + Alpelisib; first compound 0.2 µM) of 0.869, a relative viability (Sunitinib + Alpelisib; first compound 0.6325 µM) of 0.669 and a relative viability (Sunitinib + Alpelisib; first compound 2 µM) of 0.641. The relative viability (Sunitinib + Dasatinib; first compound 0.02 µM) was 0.456, the relative viability (Sunitinib + Dasatinib; first compound 0.06325 µM) was 0.43 and the relative viability (Sunitinib + Dasatinib; first compound 0.2 µM) was 0.503. The relative viability (Sunitinib + Dasatinib; first compound 0.6325 µM) was 0.451 and the relative viability (Sunitinib + Dasatinib; first compound 2 µM) was 0.46.
In the case of NCI-H1792, the relative viability (Sunitinib + Palbociclib; first compound 0.02 µM) is reported as 0.627, the relative viability (Sunitinib + Palbociclib; first compound 0.06325 µM) is reported as 0.661 and the relative viability (Sunitinib + Palbociclib; first compound 0.2 µM) is reported as 0.763. The relative viability (Sunitinib + Palbociclib; first compound 0.6325 µM) was 0.612, the relative viability (Sunitinib + Palbociclib; first compound 2 µM) was 0.734 and the relative viability (Sunitinib + Bortezomib; first compound 0.02 µM) was 0.93. It also gave a relative viability (Sunitinib + Bortezomib; first compound 0.06325 µM) of 0.924, a relative viability (Sunitinib + Bortezomib; first compound 0.2 µM) of 1.09 and a relative viability (Sunitinib + Bortezomib; first compound 0.6325 µM) of 0.99. The relative viability (Sunitinib + Bortezomib; first compound 2 µM) was 0.981, the relative viability (Sunitinib + Alpelisib; first compound 0.02 µM) was 0.578 and the relative viability (Sunitinib + Alpelisib; first compound 0.06325 µM) was 0.56. For the same cell line, the relative viability (Sunitinib + Alpelisib; first compound 0.2 µM) was 0.78, the relative viability (Sunitinib + Alpelisib; first compound 0.6325 µM) was 0.682 and the relative viability (Sunitinib + Alpelisib; first compound 2 µM) was 0.824. For the same cell line, the relative viability (Sunitinib + Dasatinib; first compound 0.02 µM) was 0.678, the relative viability (Sunitinib + Dasatinib; first compound 0.06325 µM) was 0.799 and the relative viability (Sunitinib + Dasatinib; first compound 0.2 µM) was 1.02. It also gave a relative viability (Sunitinib + Dasatinib; first compound 0.6325 µM) of 0.754 and a relative viability (Sunitinib + Dasatinib; first compound 2 µM) of 0.74.
H3255 was tested, and the relative viability (Sunitinib + Palbociclib; first compound 0.02 µM) was 0.313, the relative viability (Sunitinib + Palbociclib; first compound 0.06325 µM) was 0.299 and the relative viability (Sunitinib + Palbociclib; first compound 0.2 µM) was 0.302. The relative viability (Sunitinib + Palbociclib; first compound 0.6325 µM) was 0.311, the relative viability (Sunitinib + Palbociclib; first compound 2 µM) was 0.331 and the relative viability (Sunitinib + Bortezomib; first compound 0.02 µM) was 0.817. The relative viability (Sunitinib + Bortezomib; first compound 0.2 µM) was 0.827, the relative viability (Sunitinib + Bortezomib; first compound 0.6325 µM) was 0.995 and the relative viability (Sunitinib + Bortezomib; first compound 2 µM) was 0.822. The relative viability (Sunitinib + Alpelisib; first compound 0.02 µM) was 0.696, the relative viability (Sunitinib + Alpelisib; first compound 0.06325 µM) was 0.756 and the relative viability (Sunitinib + Alpelisib; first compound 0.2 µM) was 0.776. The relative viability (Sunitinib + Alpelisib; first compound 0.6325 µM) was 0.891, the relative viability (Sunitinib + Alpelisib; first compound 2 µM) was 0.707 and the relative viability (Sunitinib + Dasatinib; first compound 0.02 µM) was 0.455. It also gave a relative viability (Sunitinib + Dasatinib; first compound 0.06325 µM) of 0.379, a relative viability (Sunitinib + Dasatinib; first compound 0.2 µM) of 0.418 and a relative viability (Sunitinib + Dasatinib; first compound 0.6325 µM) of 0.336. It also gave a relative viability (Sunitinib + Dasatinib; first compound 2 µM) of 0.381.
NCI-H2126 gave a relative viability (Sunitinib + Palbociclib; first compound 0.02 µM) of 0.341, a relative viability (Sunitinib + Palbociclib; first compound 0.06325 µM) of 0.36 and a relative viability (Sunitinib + Palbociclib; first compound 0.2 µM) of 0.37. For the same cell line, the relative viability (Sunitinib + Palbociclib; first compound 0.6325 µM) was 0.338, the relative viability (Sunitinib + Palbociclib; first compound 2 µM) was 0.359 and the relative viability (Sunitinib + Bortezomib; first compound 0.02 µM) was 1.07. For the same cell line, the relative viability (Sunitinib + Bortezomib; first compound 0.06325 µM) was 1.19, the relative viability (Sunitinib + Bortezomib; first compound 0.2 µM) was 1.16 and the relative viability (Sunitinib + Bortezomib; first compound 0.6325 µM) was 1.15. For the same cell line, the relative viability (Sunitinib + Bortezomib; first compound 2 µM) was 1.13, the relative viability (Sunitinib + Alpelisib; first compound 0.02 µM) was 0.736 and the relative viability (Sunitinib + Alpelisib; first compound 0.06325 µM) was 0.76. It also gave a relative viability (Sunitinib + Alpelisib; first compound 0.2 µM) of 0.818, a relative viability (Sunitinib + Alpelisib; first compound 0.6325 µM) of 0.747 and a relative viability (Sunitinib + Alpelisib; first compound 2 µM) of 0.715. It also gave a relative viability (Sunitinib + Dasatinib; first compound 0.02 µM) of 0.601, a relative viability (Sunitinib + Dasatinib; first compound 0.06325 µM) of 0.67 and a relative viability (Sunitinib + Dasatinib; first compound 0.2 µM) of 0.636. For the same cell line, the relative viability (Sunitinib + Dasatinib; first compound 0.6325 µM) was 0.719 and the relative viability (Sunitinib + Dasatinib; first compound 2 µM) was 0.638.
CAL-12T was tested, and the relative viability (Sunitinib + Palbociclib; first compound 0.02 µM) was 0.416, the relative viability (Sunitinib + Palbociclib; first compound 0.06325 µM) was 0.427 and the relative viability (Sunitinib + Palbociclib; first compound 0.2 µM) was 0.46. The relative viability (Sunitinib + Palbociclib; first compound 0.6325 µM) was 0.493, the relative viability (Sunitinib + Palbociclib; first compound 2 µM) was 0.473 and the relative viability (Sunitinib + Bortezomib; first compound 0.02 µM) was 1.04. It also gave a relative viability (Sunitinib + Bortezomib; first compound 0.06325 µM) of 1.06, a relative viability (Sunitinib + Bortezomib; first compound 0.2 µM) of 1.07 and a relative viability (Sunitinib + Bortezomib; first compound 0.6325 µM) of 1.21. It also gave a relative viability (Sunitinib + Bortezomib; first compound 2 µM) of 1.05, a relative viability (Sunitinib + Alpelisib; first compound 0.02 µM) of 0.957 and a relative viability (Sunitinib + Alpelisib; first compound 0.06325 µM) of 1.19. The relative viability (Sunitinib + Alpelisib; first compound 0.2 µM) was 1.25, the relative viability (Sunitinib + Alpelisib; first compound 0.6325 µM) was 1.43 and the relative viability (Sunitinib + Alpelisib; first compound 2 µM) was 1.14. For the same cell line, the relative viability (Sunitinib + Dasatinib; first compound 0.02 µM) was 0.36, the relative viability (Sunitinib + Dasatinib; first compound 0.06325 µM) was 0.446 and the relative viability (Sunitinib + Dasatinib; first compound 0.2 µM) was 0.442. The relative viability (Sunitinib + Dasatinib; first compound 0.6325 µM) was 0.468 and the relative viability (Sunitinib + Dasatinib; first compound 2 µM) was 0.332.
Work on COR-L23 yielded a relative viability (Sunitinib + Palbociclib; first compound 0.02 µM) of 0.305, a relative viability (Sunitinib + Palbociclib; first compound 0.06325 µM) of 0.402 and a relative viability (Sunitinib + Palbociclib; first compound 0.2 µM) of 0.324. It also gave a relative viability (Sunitinib + Palbociclib; first compound 0.6325 µM) of 0.295, a relative viability (Sunitinib + Palbociclib; first compound 2 µM) of 0.363 and a relative viability (Sunitinib + Bortezomib; first compound 0.02 µM) of 0.995. It also gave a relative viability (Sunitinib + Bortezomib; first compound 0.06325 µM) of 1.02, a relative viability (Sunitinib + Bortezomib; first compound 0.2 µM) of 1 and a relative viability (Sunitinib + Bortezomib; first compound 0.6325 µM) of 1.13. The relative viability (Sunitinib + Alpelisib; first compound 0.02 µM) was 0.897, the relative viability (Sunitinib + Alpelisib; first compound 0.06325 µM) was 0.724 and the relative viability (Sunitinib + Alpelisib; first compound 0.2 µM) was 0.935. The relative viability (Sunitinib + Alpelisib; first compound 0.6325 µM) was 0.917, the relative viability (Sunitinib + Alpelisib; first compound 2 µM) was 0.891 and the relative viability (Sunitinib + Dasatinib; first compound 0.02 µM) was 0.489. The relative viability (Sunitinib + Dasatinib; first compound 0.06325 µM) was 0.522, the relative viability (Sunitinib + Dasatinib; first compound 0.2 µM) was 0.622 and the relative viability (Sunitinib + Dasatinib; first compound 0.6325 µM) was 0.533. For the same cell line, the relative viability (Sunitinib + Dasatinib; first compound 2 µM) was 0.542.
With BEN the relative viability (Sunitinib + Palbociclib; first compound 0.02 µM) was 0.487, the relative viability (Sunitinib + Palbociclib; first compound 0.06325 µM) was 0.467 and the relative viability (Sunitinib + Palbociclib; first compound 0.2 µM) was 0.452. The relative viability (Sunitinib + Palbociclib; first compound 0.6325 µM) was 0.445, the relative viability (Sunitinib + Palbociclib; first compound 2 µM) was 0.496 and the relative viability (Sunitinib + Bortezomib; first compound 0.02 µM) was 0.769. For the same cell line, the relative viability (Sunitinib + Bortezomib; first compound 0.06325 µM) was 0.904, the relative viability (Sunitinib + Bortezomib; first compound 0.2 µM) was 0.757 and the relative viability (Sunitinib + Bortezomib; first compound 0.6325 µM) was 0.784. It also gave a relative viability (Sunitinib + Bortezomib; first compound 2 µM) of 0.733, a relative viability (Sunitinib + Alpelisib; first compound 0.02 µM) of 0.898 and a relative viability (Sunitinib + Alpelisib; first compound 0.06325 µM) of 1.1. For the same cell line, the relative viability (Sunitinib + Alpelisib; first compound 0.2 µM) was 1.04, the relative viability (Sunitinib + Alpelisib; first compound 0.6325 µM) was 0.991 and the relative viability (Sunitinib + Alpelisib; first compound 2 µM) was 0.955. It also gave a relative viability (Sunitinib + Dasatinib; first compound 0.02 µM) of 0.31, a relative viability (Sunitinib + Dasatinib; first compound 0.06325 µM) of 0.301 and a relative viability (Sunitinib + Dasatinib; first compound 0.2 µM) of 0.277. For the same cell line, the relative viability (Sunitinib + Dasatinib; first compound 0.6325 µM) was 0.38 and the relative viability (Sunitinib + Dasatinib; first compound 2 µM) was 0.309.
